According to patent US20050209157A1, “Short bioactive peptides and methods for their use” (priority 2001, published 2005):
Values after ≈ are worked out from the molar mass of the structure shown. Like-named read-outs stand apart in the source and are kept apart here. No end group written: not given here.

Experiments:
P. aeruginosa H374 = assay type: cell-based, Pseudomonas aeruginosa; conditions: in µg/mL
S. epidermidis C621 = assay type: cell-based, Staphylococcus epidermidis; conditions: Table 13; in µg/mL
[1] = test system: Pseudomonas aeruginosa 100609; assay type: cell-based; conditions: Table 9; in µg/mL
[2] = test system: Candida glabrata ATCC15126; assay: Antimicrobial assays II, NCCLS broth microdilution MIC; assay type: cell-based; conditions: Table 13; in µg/mL
S. aureus (MRSA) = assay type: cell-based, Staphylococcus aureus; conditions: Table 13, strain SAP0017; in µg/mL
E. coli UB1005 = assay type: cell-based, Escherichia coli; conditions: Table 12
Candida albicans 105 = assay type: cell-based; conditions: Table 13; in µg/mL
S. typhimurium 14028S = assay type: cell-based, Salmonella typhimurium; conditions: Table 12
[3] = test system: Pseudomonas aeruginosa 105663; assay type: cell-based; conditions: Table 9; in µg/mL
[4] = test system: Pseudomonas aeruginosa H187; assay type: cell-based; conditions: in µg/mL

## FAKLLAKLAKKLL-NH2 [P43 (25)]
P. aeruginosa H374; Table 9
  MIC P. aeruginosa H374: 8
P. aeruginosa H374; Table 12
  MIC P. aeruginosa H374: 8
S. epidermidis C621
  MIC S. epidermis C621: 2
[1]
  MIC P. aeruginosa Tb 100609: 8
[2]
  MIC C. glabrata ATCC15126: 16
S. aureus (MRSA)
  MIC S. aureus SAP0017: 4
E. coli UB1005
  MIC E. coli UB1005: 8 µg/mL
Candida albicans 105
  MIC C. albicans 105: 8
S. typhimurium 14028S
  MIC S. typhimurium 14028S: 8 µg/mL
[3]
  MIC P. aeruginosa Tb 105663: 8
[4]; Table 9
  MIC P. aeruginosa H187: 8
[4]; Table 12
  MIC P. aeruginosa H187: 8

## VALALKALKKLLKKLKKLAKKAL-NH2 [P510 (161)]
P. aeruginosa H374; Table 9
  MIC P. aeruginosa H374: 8
P. aeruginosa H374; Table 12
  MIC P. aeruginosa H374: 8
S. epidermidis C621
  MIC S. epidermis C621: 4
[1]
  MIC P. aeruginosa Tb 100609: 16
[2]
  MIC C. glabrata ATCC15126: 64
S. aureus (MRSA)
  MIC S. aureus SAP0017: 8
E. coli UB1005
  MIC E. coli UB1005: 8 µg/mL
Candida albicans 105
  MIC C. albicans 105: 32
S. typhimurium 14028S
  MIC S. typhimurium 14028S: 16 µg/mL
[3]
  MIC P. aeruginosa Tb 105663: 16
[4]; Table 9
  MIC P. aeruginosa H187: 8
[4]; Table 12
  MIC P. aeruginosa H187: 8

## FAKKLAKKLKKLAKKLAKKWKL-OH [P72 (48)]
P. aeruginosa H374; Table 9
  MIC P. aeruginosa H374: 4
P. aeruginosa H374; Table 12
  MIC P. aeruginosa H374: 4
S. epidermidis C621
  MIC S. epidermis C621: 4
[1]
  MIC P. aeruginosa Tb 100609: 8
[2]
  MIC C. glabrata ATCC15126: 64
S. aureus (MRSA)
  MIC S. aureus SAP0017: 16
E. coli UB1005
  MIC E. coli UB1005: 2 µg/mL
Candida albicans 105
  MIC C. albicans 105: 32
S. typhimurium 14028S
  MIC S. typhimurium 14028S: 8 µg/mL
[3]
  MIC P. aeruginosa Tb 105663: 8
[4]; Table 9
  MIC P. aeruginosa H187: 8
[4]; Table 12
  MIC P. aeruginosa H187: 8

## CC(C)C[C@H](NC(=O)[C@H](C)NC(=O)[C@H](CC(C)C)NC(=O)[C@H](CCCCN)NC(=O)[C@H](C)NC(=O)[C@H](CC(C)C)NC(=O)[C@H](CCCCN)NC(=O)[C@H](CCCCN)NC(=O)[C@H](C)NC(=O)[C@H](CC(C)C)NC(=O)[C@H](CCCCN)NC(=O)[C@H](C)NC(=O)[C@H](CC(C)C)NC(=O)[C@H](CCCCN)NC(=O)[C@H](CCCCN)NC(=O)[C@H](C)NC(=O)[C@@H](N)C(C)C)C(N)=O [P50 (32)]
P. aeruginosa H374; Table 9
  MIC P. aeruginosa H374: 4
P. aeruginosa H374; Table 12
  MIC P. aeruginosa H374: 4
S. epidermidis C621
  MIC S. epidermis C621: 4
[1]
  MIC P. aeruginosa Tb 100609: 4
[2]
  MIC C. glabrata ATCC15126: 16
S. aureus (MRSA)
  MIC S. aureus SAP0017: 4
E. coli UB1005
  MIC E. coli UB1005: 2 µg/mL (≈ 1.11 µM)
Candida albicans 105
  MIC C. albicans 105: 16
S. typhimurium 14028S
  MIC S. typhimurium 14028S: 4 µg/mL (≈ 2.21 µM)
[3]
  MIC P. aeruginosa Tb 105663: 8
[4]; Table 9
  MIC P. aeruginosa H187: 4
[4]; Table 12
  MIC P. aeruginosa H187: 4

## CC(C)C[C@H](NC(=O)[C@H](C)NC(=O)[C@H](CC(C)C)NC(=O)[C@H](CCCCN)NC(=O)[C@H](C)NC(=O)[C@H](CC(C)C)NC(=O)[C@H](CCCCN)NC(=O)[C@H](CCCCN)NC(=O)[C@H](C)NC(=O)[C@H](CC(C)C)NC(=O)[C@H](CCCCN)NC(=O)[C@H](C)NC(=O)[C@H](CC(C)C)NC(=O)[C@H](CCCCN)NC(=O)[C@H](CCCCN)NC(=O)[C@H](C)NC(=O)[C@@H](N)Cc1ccccc1)C(N)=O [P35 (17)]
P. aeruginosa H374; Table 9
  MIC P. aeruginosa H374: 8
P. aeruginosa H374; Table 12
  MIC P. aeruginosa H374: 8
S. epidermidis C621
  MIC S. epidermis C621: 4
[1]
  MIC P. aeruginosa Tb 100609: 4
[2]
  MIC C. glabrata ATCC15126: 16
S. aureus (MRSA)
  MIC S. aureus SAP0017: 8
E. coli UB1005
  MIC E. coli UB1005: 2 µg/mL (≈ 1.08 µM)
Candida albicans 105
  MIC C. albicans 105: 32
S. typhimurium 14028S
  MIC S. typhimurium 14028S: 4 µg/mL (≈ 2.16 µM)
[3]
  MIC P. aeruginosa Tb 105663: 4
[4]; Table 9
  MIC P. aeruginosa H187: 8
[4]; Table 12
  MIC P. aeruginosa H187: 8

## KYKKALKKLAKLL-NH2 [P146 (108)]
P. aeruginosa H374; Table 9
  MIC P. aeruginosa H374: 2
P. aeruginosa H374; Table 12
  MIC P. aeruginosa H374: 2
S. epidermidis C621
  MIC S. epidermis C621: 8
[1]
  MIC P. aeruginosa Tb 100609: 8
[2]
  MIC C. glabrata ATCC15126: 16
S. aureus (MRSA)
  MIC S. aureus SAP0017: 16
E. coli UB1005
  MIC E. coli UB1005: 2 µg/mL
Candida albicans 105
  MIC C. albicans 105: 8
S. typhimurium 14028S
  MIC S. typhimurium 14028S: 4 µg/mL
[3]
  MIC P. aeruginosa Tb 105663: 8
[4]; Table 9
  MIC P. aeruginosa H187: 4
[4]; Table 12
  MIC P. aeruginosa H187: 4

## FALKALKKLKKALKKAL-NH2 [P153 (115)]
P. aeruginosa H374; Table 9
  MIC P. aeruginosa H374: 4
P. aeruginosa H374; Table 12
  MIC P. aeruginosa H374: 4
S. epidermidis C621
  MIC S. epidermis C621: 4
[1]
  MIC P. aeruginosa Tb 100609: 8
[2]
  MIC C. glabrata ATCC15126: 16
S. aureus (MRSA)
  MIC S. aureus SAP0017: 16
E. coli UB1005
  MIC E. coli UB1005: 8 µg/mL
Candida albicans 105
  MIC C. albicans 105: 16
S. typhimurium 14028S
  MIC S. typhimurium 14028S: 8 µg/mL
[3]
  MIC P. aeruginosa Tb 105663: 8
[4]; Table 9
  MIC P. aeruginosa H187: 8
[4]; Table 12
  MIC P. aeruginosa H187: 8

## FAKKLAKKLL-NH2 [P59 (39)]
P. aeruginosa H374; Table 9
  MIC P. aeruginosa H374: 8
P. aeruginosa H374; Table 12
  MIC P. aeruginosa H374: 8
S. epidermidis C621
  MIC S. epidermis C621: 8
[1]
  MIC P. aeruginosa Tb 100609: 8
[2]
  MIC C. glabrata ATCC15126: 16
S. aureus (MRSA)
  MIC S. aureus SAP0017: 8
E. coli UB1005
  MIC E. coli UB1005: 8 µg/mL
Candida albicans 105
  MIC C. albicans 105: 32
S. typhimurium 14028S
  MIC S. typhimurium 14028S: 8 µg/mL
[3]
  MIC P. aeruginosa Tb 105663: 8
[4]; Table 9
  MIC P. aeruginosa H187: 8
[4]; Table 12
  MIC P. aeruginosa H187: 8
